The test system of data set [1] is Candida albicans. Description: Antibiofilm activity against fluconazole-resistant Candida albicans DAY185 assessed as inhibition of biofilm formation at 50 ug/ml measured after 24 hrs by crystal violet staining based analysis relative to control. It counts as functional.
In data set [2] the test system is Candida albicans. Nature of the data set: Antibiofilm activity against fluconazole-resistant Candida albicans DAY185 assessed as inhibition of biofilm formation at 1 ug/ml measured after 24 hrs by crystal violet staining based analysis relative to control. It is filed as functional.
Data set [3] has as its system Candida albicans. Description: Antibiofilm activity against fluconazole-resistant Candida albicans DAY185 assessed as inhibition of biofilm formation at 0.5 ug/ml measured after 24 hrs by crystal violet staining based analysis relative to control. It counts as functional, organism-based. As to conditions: dose 0.5 µg/ml.
Data set [4] concerns Candida albicans. Description: Antibiofilm activity against fluconazole-resistant Candida albicans DAY185 assessed as inhibition of biofilm formation at 20 ug/ml measured after 24 hrs by crystal violet staining based analysis relative to control. It counts as functional.
Data set [5] concerns Candida albicans. Description: Antibiofilm activity against fluconazole-resistant Candida albicans DAY185 assessed as inhibition of biofilm formation at 5 ug/ml measured after 24 hrs by crystal violet staining based analysis relative to control. It counts as functional, organism-based. As to conditions: dose 5.0 µg/ml.
Data set [6] deals with Candida albicans. Nature of the data set: Upregulation of CDR11 mRNA level in fluconazole-resistant Candida albicans DAY185 assessed as fold increase at 50 ug/ml incubated for 6 hrs by qRT-PCR analysis relative to control. As to conditions: dose 50.0 µg/ml. It is filed as functional. A general note: Quantitative PCR measures a nucleic acid by following its amplification.
Data set [7] relates to Candida albicans. Nature of the data set: Antibiofilm activity against fluconazole-resistant Candida albicans DAY185 assessed as reduction in overall biofilm mass on bio-compatible PLGA surface coated with compound at 10 to 20 ug/ml incubated for 24 hrs by CLSM analysis. It counts as functional, organism-based. To be noted: dose 10-20 µg/ml.
The test system of data set [8] is Candida albicans. Nature of the data set: Antibiofilm activity against fluconazole-resistant Candida albicans DAY185 assessed as reduction in mean biofilm thickness on bio-compatible PLGA surface coated with compound incubated for 24 hrs by COMSTAT analysis. It counts as functional, organism-based.
Data set [9] concerns Candida albicans. Nature of the data set: Antibiofilm activity against fluconazole-resistant Candida albicans DAY185 assessed as reduction in biofilm thickness on bio-compatible PLGA surface coated with compound at 10 to 20 ug/ml incubated for 24 hrs by CLSM analysis. It counts as functional, organism-based. To be noted: dose 10-20 µg/ml.
The subject of data set [10] is [Candida] auris. Nature of the data set: Antibiofilm activity against Candida auris KCTC 17810 assessed as inhibition of biofilm formation by crystal violet staining based analysis. It counts as functional, organism-based. As to conditions: Candidozyma auris.
Data set [11] relates to Candida albicans. Nature of the data set: Upregulation of YWP1 mRNA level in fluconazole-resistant Candida albicans DAY185 assessed as fold increase at 50 ug/ml incubated for 6 hrs by qRT-PCR analysis relative to control. It is filed as functional. To be noted: dose 50.0 µg/ml.
The test system of data set [12] is Candida albicans. Nature of the data set: Inhibition of yeast to hypha transition in fluconazole-resistant Candida albicans DAY185 assessed as decrease in filamentous growth at 10 to 20 ug/ml measured after 24 hrs by SEM analysis. It is filed as functional, organism-based. To be noted: dose 10-20 µg/ml.
In data set [13] the test system is Candida albicans. Nature of the data set: Antibiofilm activity against Candida albicans ATCC 10231 assessed as inhibition of biofilm formation by crystal violet staining based analysis. It counts as functional, organism-based.
The nature of data set [14]: Toxicity in Caenorhabditis elegans assessed as nematode survival at 100 ug/ml treated for 7 days. As to conditions: 168 h, dose 100 µg/ml, time 7 day.
For data set [15], the system named is Candida albicans. Nature of the data set: Downregulation of ALS3 mRNA level in fluconazole-resistant Candida albicans DAY185 assessed as fold decrease at 50 ug/ml incubated for 6 hrs by qRT-PCR analysis relative to control. To be noted: dose 50.0 µg/ml. It is filed as functional.
Data set [16] deals with Candida albicans. Description: Antibiofilm activity against fluconazole-resistant Candida albicans DAY185 assessed as reduction in biofilm mass on bio-compatible PLGA surface coated with compound incubated for 24 hrs by COMSTAT analysis. It is filed as functional, organism-based.
Data set [17] has as its system Candida albicans. Nature of the data set: Inhibition of yeast to hypha transition in fluconazole-resistant Candida albicans DAY185 assessed as decrease in cell aggregation at 10 to 20 ug/ml measured after 24 hrs by SEM analysis. It counts as functional, organism-based. As to conditions: dose 10-20 µg/ml.
Data set [18] deals with Candida albicans. Description: Additive antibiofilm activity against fluconazole-resistant Candida albicans DAY185 assessed as inhibition of biofilm formation at 10 ug/ml measured after 24 hrs in presence of AMB by crystal violet staining based analysis relative to control. It is filed as functional, organism-based. To be noted: dose 10.0 µg/ml.
Data set [19] relates to Candida albicans. Description: Downregulation of UME6 mRNA level in fluconazole-resistant Candida albicans DAY185 assessed as fold decrease at 50 ug/ml incubated for 6 hrs by qRT-PCR analysis relative to control. It counts as functional. As to conditions: dose 50.0 µg/ml.
Data set [20] concerns Candida albicans. Nature of the data set: Additive antibiofilm activity against fluconazole-resistant Candida albicans DAY185 assessed as inhibition of biofilm formation at 10 ug/ml measured after 24 hrs in presence of BTZ by crystal violet staining based analysis relative to control. It is filed as functional, organism-based. To be noted: dose 10.0 µg/ml.
Data set [21] deals with Candida albicans. Nature of the data set: Downregulation of HWP1 mRNA level in fluconazole-resistant Candida albicans DAY185 assessed as fold decrease at 50 ug/ml incubated for 6 hrs by qRT-PCR analysis relative to control. It counts as functional. To be noted: dose 50.0 µg/ml.
In data set [22] the test system is Candida albicans. Nature of the data set: Antibiofilm activity against fluconazole-resistant Candida albicans DAY185 assessed as reduction in substratum coverage on bio-compatible PLGA surface coated with compound at 20 ug/ml incubated for 24 hrs by COMSTAT analysis. It is filed as functional, organism-based. To be noted: dose 20.0 µg/ml.
Data set [23] relates to Candida albicans. Description: Antibiofilm activity against fluconazole-resistant Candida albicans DAY185 assessed as inhibition of biofilm formation at 10 to 20 ug/ml measured after 24 hrs by 2D/3D imaging analysis relative to control. It counts as functional. As to conditions: dose 10-20 µg/ml.
The subject of data set [24] is Candida albicans. Description: Downregulation of ECE1 mRNA level in fluconazole-resistant Candida albicans DAY185 assessed as fold decrease at 50 ug/ml incubated for 6 hrs by qRT-PCR analysis relative to control. It counts as functional. As to conditions: dose 50.0 µg/ml.
Data set [25] concerns [Candida] auris. Description: Antibiofilm activity against Candida auris KCTC 17809 assessed as inhibition of biofilm formation by crystal violet staining based analysis. It counts as functional, organism-based. To be noted: Candidozyma auris.
For data set [26], the system named is Candida albicans. Nature of the data set: Antibiofilm activity against Candida albicans KCCM 12552 assessed as inhibition of biofilm formation by crystal violet staining based analysis. It counts as functional, organism-based.
Data set [27] concerns Candida albicans. Description: Antibiofilm activity against fluconazole-resistant Candida albicans DAY185 assessed as inhibition of biofilm formation on bio-compatible PLGA surface coated with compound at 10 to 20 ug/ml incubated for 24 hrs by CLSM analysis. It is filed as functional, organism-based. To be noted: dose 10-20 µg/ml.
Data set [28] relates to Candida albicans. Nature of the data set: Inhibition of yeast to hypha transition in fluconazole-resistant Candida albicans DAY185 assessed as decrease in germ tube formation at 10 to 20 ug/ml measured after 24 hrs by SEM analysis. It is filed as functional, organism-based. To be noted: dose 10-20 µg/ml.
The next data set relates to Brassica rapa. Nature of the data set: Toxicity in Brassica rapa assessed as seed germination rate at 10 to 100 ug/ml treated for 4 days relative to control. It counts as organism-based. As to conditions: in vivo, 96 h, at 10 to 100 µg/mL, dose 10-100 µg/ml, time 4 day.
The subject of data set [29] is Candida albicans. Nature of the data set: Inhibition of yeast to hypha transition in fluconazole-resistant Candida albicans DAY185 assessed as decrease in hyphal adhesion at 5 to 20 ug/ml measured after 24 hrs by SEM analysis. It counts as functional, organism-based. To be noted: dose 5-20 µg/ml.
Data set [30] deals with Candida albicans. Description: Inhibition of yeast to hypha transition in fluconazole-resistant Candida albicans DAY185 assessed as decrease in hyphal growth at 5 to 20 ug/ml measured after 24 hrs by SEM analysis. To be noted: dose 5-20 µg/ml. It is filed as functional, organism-based.

The source made the active and inactive calls. The rule behind the calls is not given here. Bounds are passed on as bounds.

This note sets out measurements from ChEMBL document CHEMBL6182857, “Targeting biofilm formation in Candida albicans with halogenated pyrrolopyrimidine derivatives” (Eur J Med Chem, 2025).

By inhibition is commonly meant the relative decrease from the control value, in per cent.

For the molecule `Clc1ncnc2[nH]cc(Br)c12`, in the data set with Candida albicans [1], the inhibition at 50 µg/mL is over 85%.

As for `CC(=O)N1CCN(c2ccc(OCC3COC(Cn4ccnc4)(c4ccc(Cl)cc4Cl)O3)cc2)CC1` (stereo not drawn) [KETOCONAZOLE], the inhibition at 1 µg/mL with Candida albicans [2] is under 12%.

Regarding `C[C@@H]1[C@H](O)[C@@H](C)/C=C/C=C/C=C/C=C/C=C/C=C/C=C/[C@H](O[C@@H]2O[C@H](C)[C@@H](O)[C@H](N)[C@@H]2O)C[C@@H]2O[C@](O)(C[C@@H](O)C[C@@H](O)[C@H](O)CC[C@@H](O)C[C@@H](O)CC(=O)O[C@H]1C)C[C@H](O)[C@H]2C(=O)O` [AMPHOTERICIN B], the inhibition at 1 µg/mL in the data set with Candida albicans [2] was 96%. Moreover, the inhibition entry with Candida albicans [3] was “Active”.

On to `Clc1c[nH]c2ncnc(Cl)c12`, for which the inhibition at 50 µg/mL in the data set with Candida albicans [1] was over 85%.

Take `Clc1nc(Cl)c2c(Br)c[nH]c2n1`: the inhibition at 20 µg/mL in the data set on Candida albicans [4] is over 85%. Moreover, in the data set with Candida albicans [1], the inhibition at 50 µg/mL was over 95%.

Take `OC(Cn1cncn1)(Cn1cncn1)c1ccc(F)cc1F` [FLUCONAZOLE]: the inhibition at 1 µg/mL with Candida albicans [2] is under 12%.

Turning to `Clc1ccc(CCC(Cn2ccnc2)Sc2c(Cl)cccc2Cl)cc1` (stereo not drawn) [BUTOCONAZOLE], the inhibition at 1 µg/mL in the data set with Candida albicans [2] came out at 56%. Besides, in the data set with Candida albicans [5], the inhibition result was “Active”.

As to `Clc1ncnc2[nH]cc(I)c12`, the fold change (FC) in the data set with Candida albicans [6] is 13; with Candida albicans [11], 14; with Candida albicans [15], 145; in the data set on Candida albicans [19] it was 15; in the data set with Candida albicans [21], 55; in the data set on Candida albicans [24] it was 267. In addition, the Activity result with Candida albicans [7] is reported as “Active; More Pronounced Effects Were Observed At Higher Concentration”; in the data set with Candida albicans [8], “Dose-dependent-effect; Nearly Undetectable Levels Were Observed At 20 Ug/Ml”; in the data set on Candida albicans [9], “Active; More Pronounced Effects Were Observed At Higher Concentration”; in data set [14], “Toxic”; in the data set on Candida albicans [16] it was “Dose-dependent-effect; Nearly Undetectable Levels Were Observed At 20 Ug/Ml”; in the data set with Brassica rapa it was over 90%. The inhibition entry was “Dose-dependent-effect” in [Candida] auris [10]; “Dose-dependent-effect” in the data set on Candida albicans [13]; “Active; Significant Effect Was Observed At 20 Ug/Ml” with Candida albicans [23]; “Dose-dependent-effect” in data set [Candida] auris [25]; “Dose-dependent-effect” in the data set on Candida albicans [26]. Also, the inhibition result in the data set with Candida albicans [12], in the data set on Candida albicans [17], in the data set with Candida albicans [18], in the data set on Candida albicans [20], in the data set with Candida albicans [27] and in the data set with Candida albicans [28] was “Active” throughout. The inhibition entry with Candida albicans [29] and in the data set on Candida albicans [30] was “Active” in each case. The inhibition at 20 µg/mL with Candida albicans [4] was over 85%. For the same molecule, the inhibition at 50 µg/mL in the data set with Candida albicans [1] is over 95%. Besides, the result with Candida albicans [22] was Active.
